Test results published in patent US20120101132A1, “New Substituted Oxindole Derivative” (priority 2008, published 2012).

Biological target: T1, recombinant human GSK3β (Homo sapiens, UniProt P49841)
T1 construct: purchased Dundee University, UK
Assay: GSK3β Scintillation Proximity Assay (ATP competition)
Type: biochemical
Details: ATP 1 μM; Km of ATP for GSK3β 20 μM; peptide substrate 1 μM
Description: Determination of ATP Competition in Scintillation Proximity GSK3β Assay.
GSK3β Scintillation Proximity Assay.
The competition experiments were carried out in duplicate with 10 different concentrations of the inhibitors in clear-bottom microtiter plates (Wallac, Finland). A biotinylated peptide substrate, Biotin-Ala-Ala-Glu-Glu-Leu-Asp-Ser-Arg-Ala-Gly-Ser(PO3H2)-Pro-Gln-Leu (AstraZeneca, Lund), was added at a final concentration of 1 μM in an assay buffer containing 1 mU recombinant human GSK3β (Dundee University, UK), 12 mM morpholinepropanesulfonic acid (MOPS), pH 7.0, 0.3 mM EDTA, 0.01% β-mercaptorethanol, 0.004% Brij 35 (a […] detergent), 0.5% glycerol and 0.5 μg BSA/25 μl. The reaction was initiated by the addition of 0.04 μCi [γ-^33P]ATP (Amersham, UK) and unlabelled ATP at a final concentration of 1 μM and assay volume of 25 μl. After incubation for 20 minutes at room temperature, each reaction was terminated by the addition of 25 μl stop solution containing 5 mM EDTA, 50 μM ATP, 0.1% Triton X-100 and 0.25 mg streptavidin coated Scintillation Proximity Assay (SPA) beads (Amersham, UK). After 6 hours the radioactivity was determined in a liquid scintillation counter (1450 MicroBeta Trilux, Wallac). The inhibition curves were analysed by non-linear regression using GraphPad Prism, USA. […]

T1 sequence (P49841 whole entry): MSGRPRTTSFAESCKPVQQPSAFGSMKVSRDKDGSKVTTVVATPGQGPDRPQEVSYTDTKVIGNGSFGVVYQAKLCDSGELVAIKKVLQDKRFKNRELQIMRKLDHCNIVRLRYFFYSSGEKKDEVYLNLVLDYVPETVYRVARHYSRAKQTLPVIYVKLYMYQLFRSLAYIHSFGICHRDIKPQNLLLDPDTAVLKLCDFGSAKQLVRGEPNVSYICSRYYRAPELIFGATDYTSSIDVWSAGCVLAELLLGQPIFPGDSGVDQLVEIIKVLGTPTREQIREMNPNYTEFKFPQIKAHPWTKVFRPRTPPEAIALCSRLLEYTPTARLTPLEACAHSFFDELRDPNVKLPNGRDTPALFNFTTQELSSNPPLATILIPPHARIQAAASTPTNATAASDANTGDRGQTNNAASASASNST

N#Cc1ccc2[nH]c(O)c(-c3ccc(C(=O)O)cn3)c2c1 [compound of formula (I), 6-(5-cyano-2-hydroxy-1H-indol-3-yl)pyridine-3-carboxylic acid]
Ki: 32 nM
